# Source: patent US11453671B2, “Pyrazolopyrimidine inhibitors of JAK kinases and uses thereof” (Genentech, Inc., priority 2020, dated 2022)
# Key:
# Type in all cases: cell-based
# Jurkat clone E6-1 cells = assay: Cell cytotoxicity assay Jurkat (CellTiter-Glo, 72 hours); conditions: Table 3; 72 hours, top concentration of 50 μM; read-out: Cytotox Jurkat EC50
# Outline: (§1)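 HEK-293T or Jurkat E6-1 cells plated at 450 cells/well were treated the next day with a 10-point titration from 50 μM top (0.5% DMSO final). After 72 h at 37° C, viability was read by CellTiter-Glo luminescence.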
# A549 cells = assay: Cell cytotoxicity assay A549 (CellTiter-Glo, 72 hours); conditions: Table 3; 72 hours, top concentration of 50 μM; read-out: Cytotox A549 EC50
# Outline: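 A549 cells were plated overnight, then exposed for 72 h at 37 °C to a 10-point compound titration (top 50 μM, 0.5% DMSO final). Viability was read as CellTiter-Glo luminescence after 20 min at room temperature.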
# HEK-293T cells = assay: Cell cytotoxicity assay HEK-293T (CellTiter-Glo, 72 hours); conditions: Table 3; 72 hours, top concentration of 50 μM; read-out: Cytotox K-293 EC50
# Outline: as §1
smiles,measurement,setting,value
"CC(CO)S(=O)(=O)c1ccc(OC(F)F)c(-c2nn(C)cc2NC(=O)c2cnn3cccnc23)c1 (single isomer, unassigned) [Example 24, N-[3-[2-(difluoromethoxy)-5-(2-hydroxy-1-methyl-ethyl)sulfonyl-phenyl]-1-methyl-pyrazol-4-yl]pyrazolo[1,5-a]pyrimidine-3-carboxamide]",EC50,Jurkat clone E6-1 cells,37 µM
same,EC50,A549 cells,≥ 50 µM
same,EC50,HEK-293T cells,22 µM
